From the NIST ThermoML archive (doi:10.1016/j.jct.2018.07.015)

Experiment: mn = molality of the nth substance listed, in mol/kg
Conditions: 100 kPa, Liquid; for speed of sound: Frequency=3 MHz, Single path-length method; for mass density: Vibrating tube method

OCC(O)CO [glycerol] + O
Conditions	mass density, 293.15 K [kg/m3]	mass density, 298.15 K [kg/m3]	mass density, 303.15 K [kg/m3]	mass density, 308.15 K [kg/m3]	speed of sound, 293.15 K [m/s]	speed of sound, 298.15 K [m/s]	speed of sound, 303.15 K [m/s]	speed of sound, 308.15 K [m/s]
m1 = 0.01	998.452	997.308	995.869	994.253	1483.2	1497	1509.3	1519.9
m1 = 0.03	998.865	997.707	996.304	994.684	1484	1497.8	1510	1520.6
m1 = 0.05	999.29	998.124	996.72	995.094	1484.8	1498.6	1510.7	1521.2
m1 = 0.07	999.691	998.513	997.109	995.469	1485.5	1499.3	1511.4	1521.8

O [water] + OCC(O)CO
m2 = 0
Conditions	speed of sound [m/s]
298.15 K	1495.8
308.15 K	1519.1
